Test results as given in patent publication US9290465B2, “Substituted isoxazole amine compounds as inhibitors of SCD1” (Hoffmann-La Roche Inc., priority 2012, dated 2016).
Where a name gives a salt, the structure may show the parent alone.

What was measured:
SCD1 = target: T1, SCD1 (Mus musculus, UniProt P13516); assay: SCD assay: release of tritiated water from desaturation of 9,10-3H-stearoyl CoA, mouse liver microsomes; assay type: biochemical; conditions: mouse liver microsomes as SCD source; 300 nM (9,10) 3H-stearoyl CoA; 25 minutes at rt; read-out: IC50 (nM), in vitro inhibition of SCD1
T1 construct: Mouse liver microsomes, prepared from mice fed a high-carbohydrate diet, were a source of the SCD; from tissue; host or cells: mouse liver microsomes (mice fed a high-carbohydrate diet)
T1 sequence (P13516 1-355): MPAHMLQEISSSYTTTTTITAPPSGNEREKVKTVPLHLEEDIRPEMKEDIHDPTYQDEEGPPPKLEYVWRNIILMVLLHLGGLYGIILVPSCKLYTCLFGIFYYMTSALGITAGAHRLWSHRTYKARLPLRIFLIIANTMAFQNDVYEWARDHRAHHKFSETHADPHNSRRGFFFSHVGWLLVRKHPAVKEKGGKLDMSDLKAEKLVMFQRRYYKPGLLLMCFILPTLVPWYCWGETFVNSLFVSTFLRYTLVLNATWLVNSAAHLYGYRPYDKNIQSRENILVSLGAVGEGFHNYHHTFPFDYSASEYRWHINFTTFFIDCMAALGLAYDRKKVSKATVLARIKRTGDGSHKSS
Text: Stearoyl CoA desaturase activity was monitored by a modification of the acyl carrier protein assay described by B. R. Talamo and K. Bloch in Anal. Biochem. 1968, 29, 300-304. The SCD assay monitors the release of tritiated water from the desaturation of 9,10-^3H-stearoyl CoA.
Mouse liver microsomes, prepared from mice fed a high-carbohydrate diet, were a source of the SCD and cyt b5 and cyt b5 reductase, necessary accessory proteins for the coupled reaction. Reaction mixtures for compound titrations contained 50 mM Tris HCl pH 7.5, 100 mM NaCl, 0.165 mg/mL BSA, 2.4% DMSO, 1 mM NADH, 0.03% T-20, and 300 nM (9,10) ^3H-stearoyl CoA (Perkin-Elmer). Reactions were initiated upon the addition of 4 ug/mL SCD microsomes. Incubations were terminated after 25 minutes at rt with cold 6% TCA. After standing 10 minutes at 4° C., samples were centrifuged 15 minutes at 4000 rpm to pellet precipitated protein. Supernatants were added to microtiter plates containing suspensions of activated charcoal (Darco G-60, Fisher Scientific) and mixed by inversion. Plates were then centrifuged to separate ^3H—H2O product from charcoal-bound reactants. Supernatants were quantitated in a Perkin Elmer Topcount 384 after solubilization in ScintiSafe Plus 50% (Fisher Scientific).
Inhibition (%) of SCD activity by compounds was calculated according to the following formula: % Inhibition=100*[1−(CPMsample−CPMblank)/(CPMtotal−CPMblank)].

Compound	IC50 (SCD1) [nM]	melting point [°C]
CS(=O)(=O)c1ccc(CCc2ccc(-c3nocc3N)cc2)cc1 [Example 9, 3-{4-[2-(4-Methanesulfonyl-phenyl)-ethyl]-phenyl}-isoxazol-4-ylamine]	280	
CS(=O)(=O)c1ccc(COc2ccc(-c3nocc3N)nc2)cc1 [Example 12, 3-[5-(4-Methanesulfonyl-benzyloxy)-pyridin-2-yl]-isoxazol-4-ylamine]	466	
Nc1conc1-c1ccc(OCc2ccccc2Cl)cc1 [Example 22, 3-[4-(2-Chloro-benzyloxy)-phenyl]-isoxazol-4-ylamine hydrochloride]	1740	
Nc1conc1-c1ccc(OCCCc2ccccc2)cc1 [Example 11, 3-[4-(3-Phenyl-propoxy)-phenyl]-isoxazol-4-ylamine]	372	
N#Cc1ccc(COc2ccc(-c3nocc3N)cc2)cc1 [Example 17, 4-[4-(4-Amino-isoxazol-3-yl)-phenoxymethyl]-benzonitrile hydrochloride]	603	
Cc1onc(-c2ccc(OCc3ccc(S(C)(=O)=O)cc3)cc2)c1N [Example 13, 3-[4-(4-Methanesulfonyl-benzyloxy)-phenyl]-5-methyl-isoxazol-4-ylamine]	864	
Nc1conc1-c1ccc(OCc2cccc(OC(F)(F)F)c2)cc1 [Example 24, 3-[4-(3-Trifluoromethoxy-benzyloxy)-phenyl]-isoxazol-4-ylamine hydrochloride]	1350	
CS(=O)(=O)c1ccc(NCc2ccc(-c3nocc3N)cc2)cc1 [Example 7, 3-{4-[(4-methanesulfonyl-phenylamino)-methyl]-phenyl}-isoxazol-4-ylamine hydrochloride]	817	
Nc1conc1-c1ccc(OCc2ccccc2)cc1 [Example 3, 3-(4-Benzyloxy-phenyl)-isoxazol-4-ylamine]	464	
Nc1conc1-c1ccc(OCc2ccc3c(c2)CCS3(=O)=O)cc1 [Example 32, 3-[4-(1,1-Dioxo-2,3-dihydro-1H-1lambda*6*-benzo[b]thiophen-5-ylmethoxy)-phenyl]-isoxazol-4-ylamine]	259	
Nc1conc1-c1ccc(OCC(=O)c2ccccc2)cc1 [Example 15, 2-[4-(4-Amino-isoxazol-3-yl)-phenoxy]-1-phenyl-ethanone hydrochloride]	395	
Nc1conc1-c1ccc(OCc2ccc([N+](=O)[O-])cc2)cc1 [Example 16, 3-[4-(4-Nitro-benzyloxy)-phenyl]-isoxazol-4-ylamine hydrochloride]	264	
Nc1conc1-c1ccc(OCc2cccnc2)cc1 [Example 14, 3-[4-(Pyridin-3-ylmethoxy)-phenyl]-isoxazol-4-ylamine]	2200	
N#Cc1cccc(COc2ccc(-c3nocc3N)cc2)c1 [Example 18, 3-[4-(4-Amino-isoxazol-3-yl)-phenoxymethyl]-benzonitrile hydrochloride]	315	
Nc1conc1-c1ccc(OCc2cc(F)cc(F)c2)cc1 [Example 21, 3-[4-(3,5-Difluoro-benzyloxy)-phenyl]-isoxazol-4-ylamine hydrochloride]	257	
Nc1conc1-c1ccc(OCc2ccc(C(F)(F)F)cc2)cc1 [Example 19, 3-[4-(4-Trifluoromethyl-benzyloxy)-phenyl]-isoxazol-4-ylamine hydrochloride]	391	
Nc1conc1-c1ccc(OCCc2ccccc2)cc1 [Example 10]	1930	
Nc1conc1-c1ccc(OCc2ccc(S(=O)(=O)c3ccccc3)cc2)cc1 [Example 34, 3-[4-(4-Benzenesulfonyl-benzyloxy)-phenyl]-isoxazol-4-ylamine]	673	
Nc1conc1-c1ccc(OCc2ccc(F)cc2)cc1 [Example 2, 3-[4-(4-Fluoro-benzyloxy)-phenyl]-isoxazol-4-ylamine]	612	
Nc1conc1-c1ccc(OCc2ccc(Cl)cc2)cc1 (as salt: hydrochloride) [Example 25, 3-[4-(4-Chloro-benzyloxy)-phenyl]-isoxazol-4-ylamine hydrochloride]		174 to 176
Nc1conc1-c1ccc(OCc2ccc3c(c2)C=CS3(=O)=O)cc1 [Example 33, 3-[4-(1,1-Dioxo-1H-1lambda*6*-benzo[b]thiophen-5-ylmethoxy)-phenyl]-isoxazol-4-ylamine]	411	

More lines, now with the values ahead:

IC50 (SCD1) [nM]	melting point [°C]	Compound
65		CCS(=O)(=O)c1ccc(COc2ccc(-c3nocc3N)cc2)cc1 [Example 31, 3-[4-(4-Ethanesulfonyl-benzyloxy)-phenyl]-isoxazol-4-ylamine]
99		CSc1ccc(COc2ccc(-c3nocc3N)cc2)cc1 [Example 35, 3-[4-(4-Methylsulfanyl-benzyloxy)-phenyl]-isoxazol-4-ylamine hydrochloride]
152		COC(=O)c1ccc(COc2ccc(-c3nocc3N)cc2)cc1 [Example 5, 4-[4-(4-Amino-isoxazol-3-yl)-phenoxymethyl]-benzoic acid methyl ester hydrochloride]
191		CS(=O)(=O)c1ccc(COc2ccc(-c3nocc3N)cc2)c(Cl)c1 [Example 8, 3-[4-(2-Chloro-4-methanesulfonyl-benzyloxy)-phenyl]-isoxazol-4-ylamine]
40		CS(=O)(=O)c1ccc(COc2ccc(-c3nocc3N)cc2)cc1 [Example 6, 3-[4-(4-Methanesulfonyl-benzyloxy)-phenyl]-isoxazol-4-ylamine]
135		Nc1conc1-c1ccc(OCc2ccc(OC(F)(F)F)cc2)cc1 [Example 20, 3-[4-(4-Trifluoromethoxy-benzyloxy)-phenyl]-isoxazol-4-ylamine hydrochloride]
246		Nc1conc1-c1ccc(OCc2ccc(Cl)cc2)cc1 [Example 25, 3-[4-(4-Chloro-benzyloxy)-phenyl]-isoxazol-4-ylamine hydrochloride]
51		Nc1conc1-c1ccc(OCc2ccc(SC(F)(F)F)cc2)cc1 [Example 36, 3-[4-(4-Trifluoromethylsulfanyl-benzyloxy)-phenyl]-isoxazol-4-ylamine hydrochloride]
104	92 to 98	COc1ccc(COc2ccc(-c3nocc3N)cc2)cc1 [Example 4, 3-[4-(4-Methoxy-benzyloxy)-phenyl]-isoxazol-4-ylamine]
162		Nc1conc1-c1ccc(OCc2ccc(Cl)c(Cl)c2)cc1 [Example 26, 3-[4-(3,4-Dichloro-benzyloxy)-phenyl]-isoxazol-4-ylamine hydrochloride]
148		Cc1ccc(COc2ccc(-c3nocc3N)cc2)cc1C [Example 23, 3-[4-(3,4-Dimethyl-benzyloxy)-phenyl]-isoxazol-4-ylamine hydrochloride]
126		Nc1conc1-c1ccc(OCc2ccc(I)cc2)cc1 [Example 28, 3-[4-(4-Iodo-benzyloxy)-phenyl]-isoxazol-4-ylamine]
161		CC(C)c1ccc(COc2ccc(-c3nocc3N)cc2)cc1 [Example 29, 3-[4-(4-Isopropyl-benzyloxy)-phenyl]-isoxazol-4-ylamine]
196		Cc1ccc(COc2ccc(-c3nocc3N)cc2)cc1 [Example 27, 3-[4-(4-Methyl-benzyloxy)-phenyl]-isoxazol-4-ylamine hydrochloride]
